Values quoted from earlier work as cited in patent US6849271B2, “Microcapsule matrix microspheres, absorption-enhancing pharmaceutical compositions and methods” (Verion, Inc., priority 2001, dated 2005).

Conditions: published by the FDA

permeability class	Structure (SMILES)
Low	CC1(C)S[C@@H]2[C@H](NC(=O)[C@H](N)c3ccc(O)cc3)C(=O)N2[C@H]1C(=O)O [Amoxicillin]
Low	OC[C@@H](O)[C@@H](O)[C@H](O)[C@H](O)CO [Mannitol]
Low	CNC(=C[N+](=O)[O-])NCCSCc1ccc(CN(C)C)o1 [Ranitidine]
Low	C[C@](N)(Cc1ccc(O)c(O)c1)C(=O)O [L-Methyldopa]
